Laboratory results from US20040019026A1, “Compounds useful for treating hypertriglyceridemia” (priority 2000, published 2004).
“And” between values parts separate entries of the source, which are not always exact repeats. Equal entries are not always repeated.

Experiments:
[1] = test system: male BKS.Cg-m+/+Leprdb mice; experiment: Buccal administration to diabetic mice: fasting plasma triglycerides (Example 3); format: in vivo
From the text: The following example, tested the effects of buccal administration of 16α-fluoro-5-andorsten-17-one (hereinafter “drug”).
Eight-week-old male BKS.Cg-m^+/+Lepr^db mice were obtained from Jackson Laboratories. The mice were initially housed five per cage on Alphacel bedding with ad libitum access to Purina 5015 chow and acidified water. The mice wee housed in the Central Animal Facility (6th Floor, Pharmacy building) with twelve hours of alternating light and darkness.
Five days later, the chow was removed from the mice at approximately 3:30 p.m. This was done so that a fasting plasma glucose level could be obtained on the next day. The next day, a pretreatment plasma glucose determination was made. The mice were lightly anesthetized with Isoflurane and were bled form the orbital sinus (˜400 μL of blood was taken). The blood was obtained between 10:00 a.m. and noon. Blood was kept on ice until analysis. After the blood for the glucose measurement was taken out, the remaining blood was centrifuged at 3000×g for 15 minutes. The plasma was removed and frozen for use in determining plasma triglyceride levels.
Plasma triglyceride levels were determined with a Sigma kit (334-UV). The determination is based on the enzymatic hydrolysis of triglycerides to glycerol and free fatty acids by lipase. Glycerol was subsequently phosphorylated by ATP to produce glycerol-I-phosphate and ADP. ATP was regenerated by a pyruvate kinase-catalyzed reaction between ADP […] with simultaneous oxidation of equimolar amounts of NADH in the presence of lactate dehydrogenase. NADH absorbs at 340 nm, thus the decrease in absorbance, measured at this wavelength, is directly proportional to the triglyceride concentration in this sample.
Triglyceride Reagent A (containing ATP, lactate dehydrogenase, lipase, NADH, phosphoenol pyruvate, pyruvate kinase) and Triglyceride Reagent B were reconstituted with 10 mL and 2 mL of distilled water respectively. The Sample Reagent was prepared by adding 0.25 mL of Triglyceride reagent B to 10 mL to Triglyceride Reagent A. Blank, standard (50, 100 and 200 mg/dL) and sample tubes were prepared. One mL of Sample Reagent was added to all tubes. To the Blank tube, 20 μL of distilled water was added. For each Sample tube, 20 μL of plasma was added to the tube. All tubes were incubated at room temperature for 10 minutes. The tubes were read against a Reference containing distilled water. Triglyceride concentration in the samples were calculated by subtracting the absorbance of the Sample form the absorbance of the Blank and using the following formula: […]
One week after obtaining the mice, the mice were distributed into either groups of 6 mice (Control, buccal and 5 mg/kg drug buccal), or 7 mice (10 mg/kg drug buccal). The mice were weighed.
The buccally administered groups were treated with a suspension of drug, 16α-5-androsten-17-one obtained from Eminent Services Corp. The suspension consisted of 100 mg/mL of micronized fluasterone (16α-fluoro-5-androsten-17-one) in 0.9% saline plus 2% Tween 80 and 0.4% carboxymethyl cellulose. The mice were lightly anesthetized with isoflurane and then injected i.m. with 0.05 mL of a solution of ketamine (50 mg/kg), xylazine (10 mg.kg) and atropine (0.1 mg/kg) injected near tail). Approximately 10 minutes post injection, while the animals were anesthetized, the mice were placed on their backs and were treated with one-half of the dose of drug necessary in each buccal area. The mice remained anesthetized and on their backs for approximately 30 minutes post-treatment. The 5 mg/kg drug group was treated with 2.04 μL of suspension (1.02 μL per buccal area) and the 10 mg/kg drug group was treated with 4.2 μL(2.1 μL per buccal area) while the Control Buccal group received 4.2 μL (2.1 μL per buccal area) for the duration of the experiment. The cages of the mice were placed on heating pads on a low temperature to prevent loss of animals due to hypothermia during anesthesia. […]

[2] = test system: patients with rheumatoid arthritis; experiment: Trial in arthritis patients, 1200 mg oral fluasterone daily: HDL levels (Example 5b); format: in vivo, human
Description: In this trial patients with rheumatoid arthritis were treated for 3 to 12 weeks with 1200 mg oral fluasterone daily. A placebo group was also included.

Compound: C[C@]12CCCCC1=CC[C@@H]1[C@@H]2CC[C@]2(C)C(=O)[C@H](F)C[C@@H]12 [fluasterone, 16α-fluoro-5-androsten-17-one]
- Plasma triglycerides ([1]; 5 mg/kg buccal group, pre-treatment, group mean): 138.4 ± 44.6 mg/dL
- Plasma triglycerides ([1]; 5 mg/kg buccal group, pre-treatment, individual mice, listed as drug): 116.8 mg/dL and 222.8 mg/dL and 120.6 mg/dL and 110.7 mg/dL and 153.8 mg/dL and 105.9 mg/dL
- Plasma triglycerides ([1]; 5 mg/kg buccal, after 6 days of treatment, group mean, p < 0.01 vs. control buccal): 110.6 ± 28.0 mg/dL
- Plasma triglycerides ([1]; 5 mg/kg buccal, after 6 days of treatment, individual mice, listed as drug): 77.2 mg/dL and 106.0 mg/dL and 87.3 mg/dL and 414.0 mg/dL and 146.6 mg/dL and 105.4 mg/dL
- Plasma triglycerides ([1]; 5 mg/kg buccal, after 13 days of treatment, group mean, p < 0.0005 vs. Control buccal): 82.0 ± 12.3 mg/dL
- Plasma triglycerides ([1]; 5 mg/kg buccal, after 13 days of treatment, individual mice, listed as drug): 97.8 mg/dL and 89.3 mg/dL and 65.3 mg/dL and 79.1 mg/dL and 78.3 mg/dL
- Plasma triglycerides ([1]; 10 mg/kg buccal group, pre-treatment, group mean): 118.7 ± 38.1 mg/dL
- Plasma triglycerides ([1]; 10 mg/kg buccal group, pre-treatment, individual mice, listed as drug): 97.1 mg/dl and 102.1 mg/dl (2×) and 89.4 mg/dl and 184.4 mg/dl and 93.7 mg/dl and 162.1 mg/dl
- Plasma triglycerides ([1]; 10 mg/kg buccal, after 6 days of treatment, group mean, p < 0.01 vs. Control buccal): 96.5 ± 32.4 mg/dL
- Plasma triglycerides ([1]; 10 mg/kg buccal, after 6 days of treatment, individual mice, listed as drug): 108.7 mg/dL and 83.5 mg/dL and 96.8 mg/dL and 61.2 mg/dL and 104.6 mg/dL and 64.3 mg/dL and 156.7 mg/dL
- Plasma triglycerides ([1]; 10 mg/kg buccal, after 13 days of treatment, group mean, P < 0.001 vs. Control buccal): 104.0 ± 16.6 mg/dL
- Plasma triglycerides ([1]; 10 mg/kg buccal, after 13 days of treatment, individual mice, listed as drug): 102.0 mg/dL and 83.5 mg/dL and 93.6 mg/dL and 133.5 mg/dL and 118.1 mg/dL and 97.8 mg/dL and 99.2 mg/dL
- HDL Levels ([2]; Combined (20), pretreatment): 57.4 ± 14.7
- HDL Levels ([2]; Combined, treatment 1200 mg oral daily, 3 to 12 weeks, p < 0.02): 46.9 ± 8.9
- HDL Levels ([2]; Females (16), pretreatment): 59.8 ± 14.6 (16)
- HDL Levels ([2]; Females, treatment 1200 mg oral daily, 3 to 12 weeks, p < 0.01): 46.8 ± 9.6
- HDL Levels ([2]; Males (4), pretreatment): 47.0 ± 9.1 (4)
- HDL Levels ([2]; Males (4), treatment 1200 mg oral daily, 3 to 12 weeks): 47.0 ± 5.8 (4)
